# Columns and labels:
# [1] = system: MCF-7; assay: Cytotoxicity testing (Example 7), MTS, MCF-7; format: cell-based
# Description: (§1) Cytotoxicity Studies were done in DU-145 and MCF-7 Cells. […] We set out to test the efficacy of these compounds based on known affinities for ER-α previously reported. Cells were treated for five days with 1 mM of each compound in a defined media. Cell number was estimated by the MTS method. Similar studies were carried out in the MCF-7 cell line known to express both ER-α and -β, and display proliferative properties in the presence of classic estrogens.
# [2] = system: DU-145; assay: Cytotoxicity testing (Example 7), MTS, DU-145; format: cell-based; settings: for DU145 % Cell#: five days, MTS
# Description: as §1
# [3] = system: NCR nude mice; settings: 5 to 40 mg/kg/day bolus IM injection, 40-day period
# Description: Doses included 5 to 40 mg/kg/day bolus IM injection. Toxicity effects were gauged based on changes in animal weight and gross analysis of specific organs including liver, lung, prostate, brain, spleen, heart, and kidney, collected, and fixed in paraffin sections.
# [4] = system: DU145; assay: MTS cell viability assay in DU145; format: cell-based; settings: DU145, concentrations above 1 μM
# Description: (§2) DU145, LNCaP, PC3, and MCF-7 cells were obtained from the American Type Culture Collection (Manassas, Va.). DU145, PC3, and MCF-7 cells were maintained in Dulbecco's modified Eagle's medium/F-12 supplemented with 5% heat inactivated Fetal Calf Serum and Penicillin/Streptomycin (Invitrogen Life Technologies, Carlsbad, Calif.). LNCaP cells were maintained in RPMI 1640 medium supplemented in the same fashion. Cells were cultured in 75 cm^2 flasks (Falcon, BD Biosciences, Bedford, Mass.) at 37° C. and 5% CO2. For the MTS assay (Example 3), five thousand cells were plated in each well of a 24 well plate (Falcon), were allowed to attach for a 48-hour period in the media described, and changed to a defined medium, (DMEM/F-12 or RPMI1640) supplemented with insulin (BD Biosciences). A 1000× solution of the compound of interest solubilized in DMSO (Sigma, Saint Louis, Mo.) was diluted in the defined media just prior to starting each experiment, and media was refreshed every 48 to 72 hours throughout the experiments.
# (§3) . Upon completing five days of treatment, the medium in each well was exchanged for 400 μL of an MTS solution (3-(4,5-dimethylthiazol-2-yl)-5-(3-carboxymethoxyphenyl)-2-(4-sulfophenyl)-2H-tetrazolium, inner salt; O'Toole SA, 2003, Cancer Detect Prev., 2003;27(1):47-54) spiked into media as per the manufacture's instructions (Promega, Madison, Wis.) and incubated for 2 hours at 37° C. before reading the absorbance on the μQuant UV/VIS plate reader, in conjunction with KCjunior Software (Bio-Tek Instruments, Winooski, Vt.) set at 490 nm. All experiments were carried out in quadruplicate, control wells were treated with the carrier DMSO. E2, which is estradiol-17β (Steraloids®, Newport, R.I.) and resveratrol (Sigma) were used as controls. […]
# [5] = system: DU145, PC3, and LNCaP cell lines; assay: MTS assay, values averaged or stated over the CaP cell lines; format: cell-based; settings: average
# Description: as §2, §3
# [6] = Table 3, five days, 1 mM of each compound, defined media
# [7] = Table 3, 1 mM of each compound, defined media
# [8] = Table 4 comparative study, five days, 1 mM
# [9] = Table 4 comparative study, 1 mM
Compound,"MCF-7 % Cell# [1, 6]","DU145 % Cell# [2, 7]","MCF-7 % Cell# [1, 8]","DU145 % Cell# [2, 9]",further results
CC12CCC3c4ccc(O)cc4CCC3C1CCC2(O)C=Cc1ccccc1 (stereo not shown) [Compound 1],22%,62%,–,–,–
CC12CCC3c4ccc(O)cc4CCC3C1CCC2(O)C=Cc1ccccc1F (stereo not shown) [Compound 2],40%,80%,–,–,–
Cc1ccc(C=CC2(O)CCC3C4CCc5cc(O)ccc5C4CCC32C)cc1 (stereo not shown) [Compound 3],23%,33%,–,–,–
COC(=O)c1ccc(C=CC2(O)CCC3C4CCc5cc(O)ccc5C4CCC32C)cc1 (stereo not shown) [Compound 4],28%,100%,–,–,–
Cc1cccc(C=CC2(O)CCC3C4CCc5cc(O)ccc5C4CCC32C)c1 (stereo not shown) [Compound 5],24%,9%,–,–,overall result in cytotoxicity testing (Table 3) [2]: good results
CC12CCC3c4ccc(O)cc4CCC3C1CCC2(O)C=Cc1ccc(F)cc1 (stereo not shown) [Compound 6],28%,67%,–,–,–
CC12CCC3c4ccc(O)cc4CCC3C1CCC2(O)C=Cc1ccc(C(=O)O)cc1 (stereo not shown) [Compound 8],120%,99%,–,–,–
CC12CCC3c4ccc(O)cc4CCC3C1CCC2(O)C=Cc1ccc(F)cc1 (stereo not shown) [Compound 9],27%,17%,–,–,overall result in cytotoxicity testing (Table 3) [2]: good results
CC12CCC3c4ccc(O)cc4CCC3C1CCC2(O)C=Cc1ccc(C#N)cc1 (stereo not shown) [Compound 10],23%,92%,–,–,–
COc1ccc(C=CC2(O)CCC3C4CCc5cc(O)ccc5C4CCC32C)cc1 (stereo not shown) [Compound 11],28%,60%,–,–,–
COC(=O)c1ccccc1C=CC1(O)CCC2C3CCc4cc(O)ccc4C3CCC21C (stereo not shown) [Compound 12],30%,92%,–,–,–
"C=CC1(O)CCC2C3CCc4cc(O)ccc4C3CCC21C (stereo not drawn) [Compound 13, 17α-vinyl-E2, reference compound]",53%,98%,–,–,–
COC(=O)c1ccc(C=CC2(O)CCC3C4CCc5cc(O)ccc5C4CCC32C)cc1 (stereo not shown) [Compound 15],32%,92%,–,–,–
CC12CCC3c4ccc(O)cc4CCC3C1CCC2(O)C=Cc1ccccc1CO (stereo not shown) [Compound 16],55%,105%,–,–,–
CC12CCC3c4ccc(O)cc4CCC3C1CCC2(O)C=Cc1ccccc1C(F)(F)F (stereo not shown) [Compound 19],20%,5%,–,–,overall result in cytotoxicity testing (Table 3) [2]: good results
CC12CCC3c4ccc(O)cc4CCC3C1CCC2(O)C=Cc1ccccc1CO (stereo not shown) [Compound 20],24%,97%,–,–,–
"CC12CCC3c4ccc(O)cc4CCC3C1CCC2(O)C=CBr (stereo not drawn) [Compound 22, 17α-Br-vinyl-E2, reference compound]",59%,91%,–,–,–
CC12CCC3c4ccc(O)cc4CCC3C1CCC2(O)C=Cc1cccc(C(F)(F)F)c1 (stereo not shown) [Compound 23],19%,5%,–,–,overall result in cytotoxicity testing (Table 3) [2]: good results

Compound,"MCF-7 % Cell# [1, 6]","DU145 % Cell# [2, 7]","MCF-7 % Cell# [1, 8]","DU145 % Cell# [2, 9]",further results
CC12CCC3c4ccc(O)cc4CCC3C1CCC2(O)C=Cc1ccccc1C(=O)O (stereo not shown) [Compound 24],61%,103%,–,–,–
CC12CCC3c4ccc(O)cc4CCC3C1CCC2(O)C=Cc1ccc(C(F)(F)F)cc1 (stereo not shown) [Compound 25],13%,5%,–,–,"overall result in cytotoxicity testing (Table 3) [2]: good results; general toxicity (animal weight, gross analysis of organs) [3]: No apparent detrimental effects"
"C[C@]12C[C@H](c3ccc(OCCCCCS(=O)(=O)CCCC(F)(F)C(F)(F)F)cc3)[C@@H]3c4ccc(O)cc4CC[C@H]3[C@@H]1CC[C@@H]2O [Compound 26, RU 58668, reference compound]",–,–,37%,73%,–
"CC/C(=C(\c1ccccc1)c1ccc(OCCN(C)C)cc1)c1ccccc1 [Compound 27, ICI 47, 699, reference compound]",–,–,21%,12%,–
"C[C@]1(O)CC[C@H]2[C@@H]3CCC4=CC(=O)CCC4=C3C=C[C@@]21C [Compound 29, RU 1881, reference compound]",–,–,94%,99%,–
"CC/C(=C(\c1ccccc1)c1ccc(OCCN(C)C)cc1)c1ccccc1.O=C(O)CC(O)(CC(=O)O)C(=O)O [Compound 30, TAM Citr, reference compound]",–,–,33%,47%,–
"CN(C)CCOc1ccc([C@H]2C[C@]3(C)[C@@H](O)CC[C@H]3[C@@H]3CCc4cc(O)ccc4[C@H]32)cc1 [Compound 31, RU 39411, reference compound]",–,–,102%,102%,–
"C[C@]12CC[C@@H]3c4ccc(O)cc4C[C@@H](CCCCCCCCC[S+]([O-])CCCC(F)(F)C(F)(F)F)[C@H]3[C@@H]1CC[C@@H]2O (stereo partly shown) [Compound 32, ICI-182780, reference compound]",–,–,62%,94%,–
"CC/C(=C(\c1ccccc1)c1ccc(OCCN(C)C)cc1)c1ccccc1 [Compound 33, Z-TAM, reference compound]",–,–,25%,56%,–
"COc1ccc2c(c1)CCC(c1ccccc1)=C2c1ccc(OCCN2CCCC2)cc1.Cl [Compound 34, 4-11, 100A, reference compound]",–,–,32%,29%,–
"C#C[C@]1(O)CC[C@H]2[C@@H]3CCC4=Cc5oncc5C[C@]4(C)[C@H]3CC[C@@]21C [Compound 35, Danazol, reference compound]",–,–,107%,92%,–
"C#C[C@]1(O)CC[C@H]2[C@@H]3CCc4cc(O)ccc4[C@H]3[C@H](OC)C[C@@]21C [Compound 37, RU16117, reference compound]",–,–,103%,101%,–
CC12CCC3c4ccc(O)cc4CCC3C1CCC2(O)C=Cc1ccc([N+](=O)[O-])cc1 (stereo not shown) [Compound 46],35%,44%,–,–,–
CC12CCC3c4ccc(O)cc4CCC3C1CCC2(O)C=Cc1ccccc1 (stereo not shown) [Compound 48],27%,47%,–,–,–
CC12CCC3c4ccc(O)cc4CCC3C1CCC2(O)C=Cc1ccccc1[N+](=O)[O-] (stereo not shown) [Compound 49],29%,17%,–,–,–
"C[C@]12CC[C@@H]3c4ccc(O)cc4CC[C@H]3[C@@H]1CC[C@@H]2O [Compound E2, estradiol-17β, reference compound]",90%,100%,90%,100%,cytotoxic or proliferative effects [4]: no apparent cytotoxic or proliferative effects; difference in cell number over non-treated cells ([5]; negative control): 0±3.4%
Oc1ccc(C=Cc2cc(O)cc(O)c2)cc1 [resveratrol],–,–,–,–,decrease in cell number ([5]; positive control): 65±5.3%

# Source: patent US20060025394A1, “Estradiol-related compounds and methods of use as anti-tumor agents” (priority 2003, published 2006)
